From ChEMBL document CHEMBL1157179, “A CoMSIA study on the adenosine kinase inhibition of pyrrolo[2,3-d]pyrimidine nucleoside analogues” (Bioorg Med Chem, 2008) come the findings set out here.

The target in the test is Adenosine kinase (Homo sapiens) (UniProt P55263).
Sequence of Adenosine kinase (Homo sapiens) (P55263 2-362 limits assumed): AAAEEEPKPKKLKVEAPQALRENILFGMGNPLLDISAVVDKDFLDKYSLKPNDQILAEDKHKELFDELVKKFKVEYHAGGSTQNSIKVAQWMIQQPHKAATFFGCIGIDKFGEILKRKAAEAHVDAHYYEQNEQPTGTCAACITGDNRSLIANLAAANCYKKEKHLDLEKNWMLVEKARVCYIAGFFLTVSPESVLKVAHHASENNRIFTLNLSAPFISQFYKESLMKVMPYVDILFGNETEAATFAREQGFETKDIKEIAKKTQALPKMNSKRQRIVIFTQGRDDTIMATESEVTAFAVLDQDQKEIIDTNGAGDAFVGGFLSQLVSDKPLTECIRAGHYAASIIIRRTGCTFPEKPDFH

Compound `Nc1ncnc2c1c(Br)cn2[C@@H]1O[C@H](CO)[C@@H](O)[C@H]1O` registered a log(10'3/IC50) of 3.92. Compound `C=C[C@H]1O[C@@H](n2cc(I)c3c(N)ncnc32)[C@H](O)[C@@H]1O` came in with a log(10'3/IC50) of 4. For `NC[C@H]1O[C@@H](n2cc(Br)c3c(N)ncnc32)[C@H](O)[C@@H]1O` the value was 6.7; for `C=CCSc1ncnc2c1c(I)cn2[C@@H]1O[C@H](C)[C@@H](O)[C@H]1O`, 2.55; for `Nc1ncnc2c1c(Cl)cn2[C@@H]1O[C@H](CO)[C@@H](O)[C@H]1O`, 3.68. The compound `[N-]=[N+]=NC[C@H]1O[C@@H](n2cc(Br)c3c(Cl)ncnc32)[C@H](O)[C@@H]1O` registered a log(10'3/IC50) of 4. The compound `CC[C@H]1O[C@@H](n2cc(Br)c3c(N)ncnc32)[C@H](O)[C@@H]1O` yielded a log(10'3/IC50) of 3.3.

Compound `CSc1cn([C@@H]2O[C@H](C)[C@@H](O)[C@H]2O)c2ncnc(N)c12` registered a log(10'3/IC50) of 2.87. Regarding `N#Cc1cn([C@@H]2O[C@H](CO)[C@@H](O)[C@H]2O)c2ncnc(N)c12`, the log(10'3/IC50) stood at 3.51.

Compound `NC[C@H]1O[C@@H](n2cc(I)c3c(Cl)ncnc32)[C@H](O)[C@@H]1O` returned a log(10'3/IC50) of 7. Compound `C[C@H]1O[C@@H](n2cc(I)c3c(S)ncnc32)[C@H](O)[C@@H]1O` showed a log(10'3/IC50) of 2.19. For the compound `NC[C@H]1O[C@@H](n2ccc3c(N)ncnc32)[C@H](O)[C@@H]1O`, the log(10'3/IC50) is 1.89.

In turn, `COC[C@H]1O[C@@H](n2cc(I)c3c(N)ncnc32)[C@H](O)[C@@H]1O` displayed a log(10'3/IC50) of 2.92. The compound `C[C@H]1O[C@@H](n2cc(Br)c3c(Cl)ncnc32)[C@H](O)[C@@H]1O` gave a log(10'3/IC50) of 4.3.

Regarding `[N-]=[N+]=NC[C@H]1O[C@@H](n2cc(Br)c3c(N)ncnc32)[C@H](O)[C@@H]1O`, the log(10'3/IC50) worked out at 4.2. `CSc1cn([C@@H]2O[C@H](C)[C@@H](O)[C@H]2O)c2ncnc(Cl)c12` returned a log(10'3/IC50) of 4.15.

`C[C@H]1O[C@@H](n2cc(I)c3c(SCc4ccc([N+](=O)[O-])cc4)ncnc32)[C@H](O)[C@@H]1O`: the log(10'3/IC50) was 2.7.

`OC[C@H]1O[C@@H](n2cc(I)c3c(Cl)ncnc32)[C@H](O)[C@@H]1O` gave a log(10'3/IC50) of 4.62. As for `NC[C@H]1O[C@@H](n2cc(I)c3c(N)ncnc32)[C@H](O)[C@@H]1O`, the log(10'3/IC50) was 6.22. `C[C@H]1O[C@@H](n2cc(C#N)c3c(N)ncnc32)[C@H](O)[C@@H]1O`: the log(10'3/IC50) worked out at 3.51. In turn, `CC[C@H]1O[C@@H](n2cc(I)c3c(N)ncnc32)[C@H](O)[C@@H]1O` displayed a log(10'3/IC50) of 4.22. Then `C[C@H]1O[C@@H](n2cc(I)c3c(Cl)ncnc32)[C@H](O)[C@@H]1O`, with 5.52.

In turn, `[N-]=[N+]=NC[C@H]1O[C@@H](n2cc(I)c3c(N)ncnc32)[C@H](O)[C@@H]1O` came in with a log(10'3/IC50) of 4.46. `CNc1ncnc2c1c(I)cn2[C@@H]1O[C@H](CO)[C@@H](O)[C@H]1O`: the log(10'3/IC50) came out at 2.92. `[N-]=[N+]=NC[C@H]1O[C@@H](n2cc(I)c3c(Cl)ncnc32)[C@H](O)[C@@H]1O`: the log(10'3/IC50) was 5.05. Regarding `CSc1ncnc2c1c(I)cn2[C@@H]1O[C@H](C)[C@@H](O)[C@H]1O`, the log(10'3/IC50) stood at 4.35.

With `C[C@H]1O[C@@H](n2cc(I)c3c(SCc4ccccc4)ncnc32)[C@H](O)[C@@H]1O`, the log(10'3/IC50) stood at 3. `CCCCSc1ncnc2c1c(I)cn2[C@@H]1O[C@H](C)[C@@H](O)[C@H]1O` yielded a log(10'3/IC50) of 3.

`Cc1cn([C@@H]2O[C@H](C)[C@@H](O)[C@H]2O)c2ncnc(Cl)c12` registered a log(10'3/IC50) of 3.27.
